# Measurements from US6274718A (priority 2000, dated 2001).
# Where a SMILES comes first, the peptide text is derived from it.
# B1: soybean trypsin inhibitor: soybean trypsin inhibitor (SBTI) (protein, UniProt P01070 25-205, looked up)
# Trypsin inhibitor A: DFVLDNEGNPLENGGTYYILSDITAFGGIRAAPTGNERCPLTVVQSRNELDKGIGTIISSPYRIRFIAEGHPLSLKFDSFAVIMLCVGIPTEWSVVEDLPEGPAVKIGENKDAMDGWFRLERVSDDEFNNYKLVFCPQQAEDDKCGDIGISIDHDDGTRRLVVSKNKPLVVQFQKLDKESL
# How the values were obtained:
# [1] = biological target: gingipain-1 (Porphyromonas gingivalis, UniProt P28784); experiment: biochemical; format: biochemical; details: for Activity +Gly-Gly: 0.1 mM compound, 50 mM Gly-Gly; for activity at 100 µM / activity at 1000 µM / activity at 10000 µM: pH 7.5, read-out: Activity -Gly-Gly; for stimulation of amidolytic activity: thiol / reducing compounds
# Sequence of gingipain-1 (Porphyromonas gingivalis, UniProt P28784) (P28784 228-719): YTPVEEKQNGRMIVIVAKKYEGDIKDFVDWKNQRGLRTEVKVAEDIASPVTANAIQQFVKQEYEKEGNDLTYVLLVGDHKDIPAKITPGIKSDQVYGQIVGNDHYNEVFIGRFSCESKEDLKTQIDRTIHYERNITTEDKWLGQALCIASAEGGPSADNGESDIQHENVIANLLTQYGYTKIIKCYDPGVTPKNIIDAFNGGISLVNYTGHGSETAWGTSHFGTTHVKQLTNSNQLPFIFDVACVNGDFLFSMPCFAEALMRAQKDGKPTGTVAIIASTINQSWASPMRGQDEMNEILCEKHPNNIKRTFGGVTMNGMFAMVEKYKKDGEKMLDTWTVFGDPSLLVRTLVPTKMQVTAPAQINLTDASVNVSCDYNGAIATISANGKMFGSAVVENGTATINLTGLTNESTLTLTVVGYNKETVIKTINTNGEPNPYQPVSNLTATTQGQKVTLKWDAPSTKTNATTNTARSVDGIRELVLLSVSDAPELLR
# [2] = tested on: gingipain-1; experiment: biochemical; format: biochemical, Porphyromonas gingivalis; details: Sephadex G-150 peak fractions
# [3] = tested on: guinea pig skin; format: in vivo; details: 10^-5 M
Molecule,Activity +Gly-Gly [1] [%],activity at 100 µM [1] [%],activity at 1000 µM [1] [%],activity at 10000 µM [1] [%],also measured
O[C@H](CS)[C@H](O)CS (racemic) [Dithiothreitol],636,159,432,685,
N[C@@H](CS)C(=O)O [Cysteine],,685,,,stimulation of amidolytic activity [1]: most efficient
N[C@@H](CCC(=O)N[C@@H](CS)C(=O)NCC(=O)O)C(=O)O [Glutathione],853,208,593,770,
"NCC(=O)NCC(=O)O [Gly-Gly, glycyl-glycine] (H-Gly-Gly-OH)",,,,,enhancement of Bz-L-Arg-pNA hydrolytic activity [2]: enhanced many-fold
OCCS [Mercaptoethanol],627,165,456,685,
NCCS [cysteamine],,,,,stimulation of amidolytic activity [1]: most efficient
NCC(N)=O [glycine amide],,,,,enhancement of Bz-L-Arg-pNA hydrolytic activity [2]: enhanced many-fold
NCC(=O)O [glycine],,,,,"effect of glycine and glycine analogues on kcat/Km ([1]; preliminary kinetic data, kcat and Km both raised equally): kcat /Km ratio does not change"
B1,,,,,inhibition of vascular permeability enhancement [3]: inhibited
